{"source": "patent US12616656B2", "about": "“Adventitial painting modality of local drug delivery to abate intimal hyperplasia” (University of Virginia Patent Foundation, priority 2021, dated 2026)", "key": {"[1]": {"system": "IH in a rat model", "conditions": "perivascular administration; cited from earlier work"}, "[2]": {"system": "active (cleaved) caspase-3", "assay": "Immunostaining of the apoptosis marker active (cleaved) caspase-3", "assay_type": "in vivo, Sprague-Dawley rats", "conditions": "Mode-3 painting, 14 days", "protocol": "(§1) Paraffin-embedded specimens were processed into 5-μm thick sections for immunostaining. The slides were deparaffinized and hydrated through series of xylenes and graded alcohol. Antigens were retrieved using citrate buffer for 2 hours at 80° C. in a high-pressure cooker. Endogenous peroxidase was blocked by incubation with 3% H2O2 for 10 min. Following application of a monoclonal antibody against either cleaved Caspase 3 (9661, Cell Signaling Technology, Inc., Danvers, MA) or CD68 (T-3003, BMA Biomedicls, Augst, Switzerland), ImmPRESS HRP Anti-Rabbit IgG (Peroxidase) Polymer Detection Kit (MP-7451, Vector Laboratories Inc., Burlingame, CA) was used as the secondary antibody. The staining intensity was visualized using ImmPACT DAB Peroxidase (HRP) Substrate (SK-4105, Vector Laboratories). Data values from 6 different portions were averaged for each animal, and averages from total animals in a group were used to calculate mean+SEM and statistical analysis."}, "[3]": {"system": "collagen", "assay": "Masson's trichrome staining, collagen density in the artery", "assay_type": "in vivo, Sprague-Dawley rats", "conditions": "Mode-1, 14 days", "protocol": "Four to six cross-sections cut from different locations (see detailed description above) from the balloon-injured CCA per each animal were used for Masson's trichrome staining. The color images were transformed into monochrome images at an 8-bit scale using Image J. After adjusting the threshold consistent through the analysis, integrated density of interest was measured. Data values from 6 sections were averaged for each animal, and averages from total animals in a group were used to calculate mean+SEM and statistical analysis."}, "[4]": {"system": "CD68", "assay": "Immunostaining of the inflammation marker CD68", "assay_type": "in vivo, Sprague-Dawley rats", "protocol": "as §1"}}, "data": [{"compound": "CC(C)N(C[C@H]1O[C@@H](n2cnc3c(N)ncnc32)[C@H](O)[C@@H]1O)[C@H]1C[C@@H](CCc2nc3cc(C(C)(C)C)ccc3[nH]2)C1", "note": "[Pinometostat, pinometostat]", "values": [{"measurement": "IH", "setting": "[1]", "result": "reduced IH"}]}, {"compound": "CO[C@H]1C[C@@H]2CC[C@@H](C)[C@@](O)(O2)C(=O)C(=O)N2CCCC[C@H]2C(=O)O[C@H]([C@H](C)C[C@@H]2CC[C@@H](O)[C@H](OC)C2)CC(=O)[C@H](C)/C=C(\\C)[C@@H](O)[C@@H](OC)C(=O)[C@H](C)C[C@H](C)/C=C/C=C/C=C/1C", "note": "[Rapamycin]", "values": [{"measurement": "apoptosis marker (caspase-3 positive cells)", "setting": "[2]", "result": "lowered the overall number of caspase-3 positive cells"}, {"measurement": "fibrosis (adventitial collagen accumulation)", "setting": "[3]", "result": "alleviated this fibrotic severity"}, {"measurement": "number of CD68-positive cells", "setting": "[4]; Mode-1 and Mode-2, 14 days", "result": "the difference was abolished"}, {"measurement": "inflammation marker (CD68 staining)", "setting": "[4]; Mode-3 painting, 14 days", "result": "reduced CD68 staining in the vessel wall"}]}]}
